Test results taken from ChEMBL document CHEMBL1147878, “Synthesis and in vitro antimicrobial activity of new 2-[p-substituted-benzyl]-5-[substituted-carbonylamino]benzoxazoles” (2007).
≈ marks a conversion by molar mass, not a printed value.

What was measured:
Type in all cases: functional
[1] = system: Nakaseomyces glabratus; assay: Antifungal activity against Candida glabrata after 48 hrs by serial dilution method
[2] = system: Candida albicans; assay: Antifungal activity against Candida albicans after 48 hrs by serial dilution method
[3] = system: Pseudomonas aeruginosa; assay: Antibacterial activity against Pseudomonas aeruginosa ATCC 10145 after 24 hrs by serial dilution method; details: ATCC 10145, 24 h
[4] = system: Pichia kudriavzevii; assay: Antifungal activity against Candida krusei ATCC 6258 after 48 hrs by serial dilution method; details: ATCC 6258, 48 h
[5] = system: Escherichia coli; assay: Antibacterial activity against Escherichia coli ATCC 23556 after 24 hrs by serial dilution method; details: ATCC 23556, 24 h
[6] = system: Bacillus subtilis; assay: Antibacterial activity against Bacillus subtilis ATCC 6633 after 24 hrs by serial dilution method; details: ATCC 6633, 24 h
[7] = system: Staphylococcus aureus; assay: Antibacterial activity against Staphylococcus aureus ATCC 25923 after 24 hrs by serial dilution method; details: ATCC 25923, 24 h

Compound | MIC [1] [µg/mL] | MIC [2] [µg/mL] | MIC [3] [µg/mL] | MIC [4] [µg/mL] | MIC [5] [µg/mL] | MIC [6] [µg/mL] | MIC [7] [µg/mL]
O=C(CSc1ccccc1)Nc1ccc2oc(Cc3ccccc3)nc2c1 | 25 (≈ 66.8 µM) | 25 (≈ 66.8 µM) | 25 (≈ 66.8 µM) | 25 (≈ 66.8 µM) | 50 (≈ 134 µM) | 50 (≈ 134 µM) | 100 (≈ 267 µM)
O=C(Nc1ccc2oc(Cc3ccccc3)nc2c1)c1ccc(Br)cc1 | 25 (≈ 61.4 µM) | 25 (≈ 61.4 µM) | 25 (≈ 61.4 µM) | 25 (≈ 61.4 µM) | 50 (≈ 123 µM) | 50 (≈ 123 µM) | 50 (≈ 123 µM)
O=C(Nc1ccc2oc(Cc3ccc(Cl)cc3)nc2c1)c1ccc([N+](=O)[O-])cc1 | 25 (≈ 61.3 µM) | 50 (≈ 123 µM) | 25 (≈ 61.3 µM) | 25 (≈ 61.3 µM) | 25 (≈ 61.3 µM) | 50 (≈ 123 µM) | 100 (≈ 245 µM)
O=C(Nc1ccc2oc(Cc3ccccc3)nc2c1)c1ccc(F)cc1 | 25 (≈ 72.2 µM) | 12.5 (≈ 36.1 µM) | 25 (≈ 72.2 µM) | 50 (≈ 144 µM) | 50 (≈ 144 µM) | 25 (≈ 72.2 µM) | 50 (≈ 144 µM)
Cc1ccc(C)c(C(=O)Nc2ccc3oc(Cc4ccccc4)nc3c2)c1 | 25 (≈ 70.1 µM) | 25 (≈ 70.1 µM) | 50 (≈ 140 µM) | 25 (≈ 70.1 µM) | 50 (≈ 140 µM) | 25 (≈ 70.1 µM) | 50 (≈ 140 µM)
O=C(Cc1ccc(Cl)cc1)Nc1ccc2oc(Cc3ccccc3)nc2c1 | 25 (≈ 66.3 µM) | 25 (≈ 66.3 µM) | 50 (≈ 133 µM) | 25 (≈ 66.3 µM) | 50 (≈ 133 µM) | 100 (≈ 265 µM) | 100 (≈ 265 µM)
O=C(Nc1ccc2oc(Cc3ccccc3)nc2c1)c1ccccc1 | 25 (≈ 76.1 µM) | 50 (≈ 152 µM) | 100 (≈ 305 µM) | 12.5 (≈ 38.1 µM) | 100 (≈ 305 µM) | 50 (≈ 152 µM) | 200 (≈ 609 µM)
CCc1ccc(C(=O)Nc2ccc3oc(Cc4ccc(Cl)cc4)nc3c2)cc1 | 25 (≈ 64 µM) | 25 (≈ 64 µM) | 50 (≈ 128 µM) | 25 (≈ 64 µM) | 50 (≈ 128 µM) | 50 (≈ 128 µM) | 50 (≈ 128 µM)
O=C(Nc1ccc2oc(Cc3ccccc3)nc2c1)c1ccc([N+](=O)[O-])cc1 | 12.5 (≈ 33.5 µM) | 12.5 (≈ 33.5 µM) | 25 (≈ 67 µM) | 12.5 (≈ 33.5 µM) | 100 (≈ 268 µM) | 25 (≈ 67 µM) | 50 (≈ 134 µM)
O=C(Nc1ccc2oc(Cc3ccccc3)nc2c1)c1ccc(Cl)c([N+](=O)[O-])c1 | 12.5 (≈ 30.7 µM) | 12.5 (≈ 30.7 µM) | 25 (≈ 61.3 µM) | 12.5 (≈ 30.7 µM) | 50 (≈ 123 µM) | 25 (≈ 61.3 µM) | 50 (≈ 123 µM)
